Laboratory results from US8536336B2, “Prodrug compounds useful as cannabinoid ligands” (AbbVie Inc., priority 2009, dated 2013).
Values after ≈ are worked out from the molar mass of the structure shown.

Columns and labels:
[1] = Solubility of prodrug in water or 0.1 N aqueous HCl (HPLC of filtrate); settings: thermodynamic from solid
Method: (§1) Approximately 3 mg of prodrug was weighed into a vial and 750 μL of water or 0.1 N aqueous HCl was added. The mixtures were vortexed to wet the solids. The mixtures were equilibrated for 1 hour with gentle agitation in a constant temperature water bath (T=25° C. for water samples and T=37° C. for 0.1 N HCl samples). After equilibration, the mixtures were visually inspected to assure that the amount of excess solid was sufficient to permit re-characterization. If not, solubility was reported as greater than the weighed concentration of prodrug (concentrations were confirmed by HPLC). The solid phase was then separated from the liquid phase by filtration through a 13 mm 0.45 μm GHP syringe filter (Pall Corporation). The filtrate was diluted as needed for quantification of the material studied by HPLC, and the concentration of the filtrate was reported as the solubility of the prodrug in the given medium.

physchem = settings: thermodynamic from solid
Method: as §1

[2] = In vivo regeneration of the parent compound after oral dosing of prodrug (plasma, HPLC-MS/MS); parameters: species or system Sprague-Dawley rats; settings: rat, oral aqueous formulation by gavage, blood samples for 24 hours
Method: Male Sprague-Dawley rats, weighing 250-400 g, were obtained from Charles Rivers Laboratories. For the initial screening, each prodrug was evaluated in one group of three rats. All rats received an oral aqueous formulation (suspension or solution), administered by gavage. Sequential blood samples were obtained from a tail vein of each animal for 24 hours after dosing. Plasma was separated by centrifugation and stored frozen until analysis. Compounds were selectively removed from the plasma using protein precipitation followed by reverse phase HPLC with MS/MS detection for quantitation. Attempts were made to measure both the prodrug and the parent compounds in each sample.

[3] = 0.1 N aqueous HCl, 37 °C, simulated gastric fluid

Row | SMILES | solubility at 1 h [1, 3] [µg/mL] | solubility at 1 h ([1]; water, 25 °C) [µg/mL] | solubility at 1 h (physchem; 25 °C, water) [µg/mL] | solubility at 1 h (physchem; 37 °C, simulated gastric fluid) [µg/mL] | Parent (Example 18) detected in plasma after dosing the prodrug [2] | Prodrug detected in plasma after dosing the prodrug [2]
1 | CCCCn1/c(=N/C(=O)c2cc(C(F)(F)F)ccc2OC[C@H](C)O)sc2cc[n+](COC(C)=O)cc21.[Br-] [Example 1, (2Z)-5-[(acetyloxy)methyl]-3-butyl-2-{[2-{[(2S)-2-hydroxypropyl]oxy}-5-(trifluoromethyl)benzoyl]imino}-2,3-dihydro[1,3]thiazolo[4,5-c]pyridin-5-ium bromide] | 2500 | 1800 |  |  |  | 
2 | CCCCn1/c(=N/C(=O)c2cc(C(F)(F)F)ccc2OC[C@H](C)OC(=O)C(C)(C)N)sc2ccncc21 [Example 2, (1S)-2-[2-({[(2Z)-3-butyl[1,3]thiazolo[4,5-c]pyridin-2(3H)-ylidene]amino}carbonyl)-4-(trifluoromethyl)phenoxy]-1-methylethyl 2-methylalaninate] | 4100 (≈ 7610 µM) | 2300 (≈ 4270 µM) |  |  |  | 
3 | CCCCn1/c(=N/C(=O)c2cc(C(F)(F)F)ccc2OC[C@H](C)OC(=O)CN)sc2ccncc21 [Example 3, (1S)-2-[2-({[(2Z)-3-butyl[1,3]thiazolo[4,5-c]pyridin-2(3H)-ylidene]amino}carbonyl)-4-(trifluoromethyl)phenoxy]-1-methylethyl glycinate] |  |  | 1200 (≈ 2350 µM) | > 4100 |  | 
4 | CCCCn1/c(=N/C(=O)c2cc(C(F)(F)F)ccc2OC[C@H](C)O)sc2cc[n+](COC(=O)C(C)(C)C)cc21.[Cl-] [Example 4, (2Z)-3-butyl-5-{[(2,2-dimethylpropanoyl)oxy]methyl}-2-{[2-{[(2S)-2-hydroxypropyl]oxy}-5-(trifluoromethyl)benzoyl]imino}-2,3-dihydro[1,3]thiazolo[4,5-c]pyridin-5-ium chloride] | 200 | 3300 |  |  |  | 
5 | CCCCn1/c(=N/C(=O)c2cc(C(F)(F)F)ccc2OC[C@H](C)O)sc2cc[n+](COC(=O)c3ccccc3)cc21.[Cl-] [Example 5, (2Z)-5-[(benzoyloxy)methyl]-3-butyl-2-{[2-{[(2S)-2-hydroxypropyl]oxy}-5-(trifluoromethyl)benzoyl]imino}-2,3-dihydro[1,3]thiazolo[4,5-c]pyridin-5-ium chloride] | 16 | 740 |  |  |  | 
6 | CCCCn1/c(=N/C(=O)c2cc(C(F)(F)F)ccc2OC[C@H](C)OC(=O)[C@H](C)N)sc2ccncc21 [Example 6, (1S)-2-[2-({[(2Z)-3-butyl[1,3]thiazolo[4,5-c]pyridin-2(3H)-ylidene]amino}carbonyl)-4-(trifluoromethyl)phenoxy]-1-methylethyl L-alaninate] | > 4100 | 2300 (≈ 4380 µM) |  |  |  | 
7 | CCCCn1/c(=N/C(=O)c2cc(C(F)(F)F)ccc2OC[C@H](C)O)sc2cc[n+](COC(=O)N3CCC[C@H]3C(=O)OC)cc21.[Cl-] [Example 7, (2Z)-3-butyl-2-{[2-{[(2S)-2-hydroxypropyl]oxy}-5-(trifluoromethyl)benzoyl]imino}-5-[({[(2S)-2-(methoxycarbonyl)pyrrolidin-1-yl]carbonyl}oxy)methyl]-2,3-dihydro[1,3]thiazolo[4,5-c]pyridin-5-ium chloride] | > 4300 | > 4300 |  |  |  | 
8 | CCCCn1/c(=N/C(=O)c2cc(C(F)(F)F)ccc2OC[C@H](C)O)sc2cc[n+](COC(=O)N(C)C)cc21.[Cl-] [Example 8, (2Z)-3-butyl-5-({[(dimethylamino)carbonyl]oxy}methyl)-2-{[2-{[(2S)-2-hydroxypropyl]oxy}-5-(trifluoromethyl)benzoyl]imino}-2,3-dihydro[1,3]thiazolo[4,5-c]pyridin-5-ium chloride] | > 4000 | 3900 |  |  |  | 
9 | CCCCn1/c(=N/C(=O)c2cc(C(F)(F)F)ccc2OC[C@H](C)OP(=O)(O)O)sc2ccncc21 [Example 9, (1S)-2-[2-({[(2Z)-3-butyl[1,3]thiazolo[4,5-c]pyridin-2(3H)-ylidene]amino}carbonyl)-4-(trifluoromethyl)phenoxy]-1-methylethyl dihydrogen phosphate] | 7 | 830 |  |  |  | 
10 | CCCCn1/c(=N/C(=O)c2cc(C(F)(F)F)ccc2OC[C@H](C)O)sc2cc[n+]([O-])cc21 [Example 12, N-[(2Z)-3-butyl-5-oxido[1,3]thiazolo[4,5-c]pyridin-2(3H)-ylidene]-2-{[(2S)-2-hydroxypropyl]oxy}-5-(trifluoromethyl)benzamide] |  |  |  |  | Measurable concentrations | Measurable concentrations
11 | CCCCn1/c(=N/C(=O)c2cc(C(F)(F)F)ccc2OC[C@H](C)OC(=O)CCC(=O)O)sc2ccncc21 [Example 14, 4-({(1S)-2-[2-({[(2Z)-3-butyl[1,3]thiazolo[4,5-c]pyridin-2(3H)-ylidene]amino}carbonyl)-4-(trifluoromethyl)phenoxy]-1-methylethyl}oxy)-4-oxobutanoic acid] |  |  | 73 (≈ 132 µM) | 10 (≈ 18.1 µM) |  | 
12 | CCCCn1/c(=N/C(=O)c2cc(C(F)(F)F)ccc2OC[C@H](C)OC(=O)NCCN(C)C)sc2ccncc21 [Example 15, (1S)-2-[2-({[(2Z)-3-butyl[1,3]thiazolo[4,5-c]pyridin-2(3H)-ylidene]amino}carbonyl)-4-(trifluoromethyl)phenoxy]-1-methylethyl 2-(dimethylamino)ethylcarbamate] | > 4000 | 680 (≈ 1200 µM) |  |  | Measurable concentrations | Measurable concentrations
13 | CCCCn1/c(=N/C(=O)c2cc(C(F)(F)F)ccc2OC[C@H](C)O)sc2ccncc21 [Example 18, N-[(2Z)-3-butyl[1,3]thiazolo[4,5-c]pyridin-2(3H)-ylidene]-2-{[(2S)-2-hydroxypropyl]oxy}-5-(trifluoromethyl)benzamide] | 4.3 (≈ 9.48 µM) | < 0.02 |  |  |  | 
